Results from US7772241B2, “Variolin derivatives and their use as antitumor agents” (Pharma Mar S.A., priority 2001, dated 2010).
Where two headings read alike, the source gives them in different places.

What was measured:
A-549 = assay: Inhibition of cells growth by colorimetric (SRB) assay, A-549; details: for GI50 / CC50: Homo sapiens, A549, 48 h; for GI50: read-out: GI50 A-549, SRB assay, 48 hours exposure
Procedure, shortened: (§1)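 Human tumour cells seeded at 5×10^3/well in RPMI 1640 10% FBS, attached 18 h, then exposed 48 h to samples at 10 to 10^−8 μg/ml in DMSO/EtOH/PBS (0.5:0.5:99). Growth read by SRB staining after TCA fixation, OD 490 nm, triplicate wells; GI, TGI and LC derived.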

HT-29 = assay: Inhibition of cells growth by colorimetric (SRB) assay, HT-29; details: for GI50 / CC50: Homo sapiens, HT-29, 48 h
Procedure, shortened: as §1

[1] = Inhibition of cells growth by colorimetric (SRB) assay, HMEC1; details: human, HMEC1 cells, LC50 H-MEC-1, SRB assay, 48 hours exposure
From the text: (§2) The finality of these assays is to interrupt the growth of a “in vitro” tumor cell culture by means a continued exhibition of the cells to the sample to be testing.
(§3) This form of the assay employs 96 well cell culture microplates of 9 mm diameter (Faircloth, 1988; Mosmann, 1983). Most of the cell lines are obtained from American Type Culture Collection (ATCC) derived from different human cancer types.
(§4) Cells are maintained in RPMI 1640 10% FBS, supplemented with 0.1 g/l penicillin and 0.1 g/l streptomycin sulphate and then incubated at 37° C., 5% CO2 and 98% humidity. For the experiments, cells were harvested from subconfluent cultures using trypsin and resuspended in fresh medium before plating.
(§5) Cells are seeded in 96 well microtiter plates, at 5×10^3 cells per well in aliquots of 195 μl medium, and they are allowed to attach to the plate surface by growing in drug free medium for 18 hours. Afterward, samples are added in aliquots of 5 μl in a ranging from 10 to 10^−8 μg/ml, dissolved in DMSO/EtOH/PBS (0.5:0.5:99). After 48 hours exposure, the antitumor effect are measured by the SRB methodology: cells are fixed by adding 50 μl of cold 50% (wt/vol) trichloroacetic acid (TCA) and incubating for 60 minutes at 4° C. Plates are washed with deionized water and dried. One hundred μl of SRB solution (0.4% wt/vol in 1% acetic acid) is added to each microtiter well and incubated for 10 minutes at room temperature. Unbound SRB is removed by washing with 1% acetic acid. Plates are air dried and bound stain is solubilized with Tris buffer. Optical densities are read on a automated spectrophotometric plate reader at a single wavelength of 490 nm.
(§6) The values for mean +/−SD of data from triplicate wells are calculated. Some parameters for cellular responses can be calculated: GI=growth inhibition, TGI=total growth inhibition (cytostatic effect) and LC=cell killing (cytotoxic effect).

HMEC1 = assay: as above; details: for GI50: Homo sapiens, HMEC-1, 48 h, read-out: GI50 H-MEC-1, SRB assay, 48 hours exposure; for TGI H-MEC-1: SRB assay, 48 hours exposure, in M (unit assumed)
From the text: as §2, §3, §4, §5, §6

[2] = read-out: LC50 A-549, SRB assay, 48 hours exposure
[3] = read-out: GI50 HT-29, SRB assay, 48 hours exposure
[4] = read-out: LC50 HT-29, SRB assay, 48 hours exposure

GI50 (A-549) [µM]	GI50 (HT-29; [3]) [µM]	GI50 (HT-29; read-out: HT-29 GI50, SRB assay, 48 hours exposure) [µM]	SMILES	CC50 (A-549; [2]) [µM]	TGI A-549 (A-549; SRB assay, 48 hours exposure)	CC50 (HT-29; [4]) [µM]	TGI HT-29 (HT-29; SRB assay, 48 hours exposure)	CC50 at 48 h [1] [µM]	GI50 (HMEC1) [µM]	TGI H-MEC-1 (HMEC1)	CC50 (A-549; read-out: A-549 LC50, SRB assay, 48 hours exposure) [µM]	A-549 TGI (A-549; SRB assay, 48 hours exposure)	CC50 (HT-29; read-out: HT-29 LC50, SRB assay, 48 hours exposure) [µM]	HT-29 TGI (HT-29; SRB assay, 48 hours exposure)
26.7	26.7	–	CSc1nccc(-c2c3c(Cl)ccnc3n3c(SC)nccc23)n1 [Compound 84]	26.7	2.67E−05	26.7	2.67E−05	26.7	26.7	2.67E−05	–	–	–	–
22.5	–	31.1	COc1cccc(-c2c3cccnc3n3c(SC)nccc23)c1 [Compound 57]	–	–	–	–	31.1	31.1	3.11E−05	31.1	3.11E−05	31.1	3.11E−05
22.4	22.4	–	CS(=O)(=O)c1nccc(-c2c3c(OCc4ccccc4)ccnc3n3c(N)nccc23)n1 [Compound 99]	22.4	2.24E−05	22.4	2.24E−05	22.4	8.2	2.24E−05	–	–	–	–
